pIC50: −log10 of the molar value. Each block holds one compound with its values, some of them ahead of it.
What was measured:
[1] = Technical effect statement on properties of the crystal forms (no method given); assay type: physicochemical
[2] = Solid stability tests of crystal form E under high temperature, high humidity and strong light (XRPD); assay type: physicochemical
From the text: The vial in which the samples were placed at high temperature and high humidity was sealed with an aluminum foil, and small holes were formed in the aluminum foil to ensure that the samples were sufficiently contacted with atmospheric air; and the sample placed at strong light radiation was sealed with a threaded cap. The samples placed under different conditions were sampled and tested by XRPD on day 5 and day 10. The test results were compared with the initial test results on day 0.

[3] = Solubility tests of crystal form A in different solvents (manual stepwise dilution); assay type: physicochemical; settings: for solubility: thermodynamic from solid, atmospheric temperature
Description: These solubility tests were carried out by manually stepwise dilution and simultaneous observation of dissolution at atmospheric temperature.

[4] = Stability tests of crystal form A in different solvents (40° C., 2 days, XRPD); assay type: physicochemical; settings: for Results (crystal form of the solid by XRPD): 40° C., 2 days; for Appearance (2 days): stirred at 40° C. for 2 days
Description: The solids in all samples were collected and dried overnight in a vacuum drying oven (25° C.).

[5] = molecular target: T1, Recombinant human JAK1 (Homo sapiens, UniProt P23458); test: In-vitro activity test of JAK1 kinase (LANCE Ultra); assay type: biochemical
T1 construct: purchased Life technology
T1 sequence (P23458 whole entry): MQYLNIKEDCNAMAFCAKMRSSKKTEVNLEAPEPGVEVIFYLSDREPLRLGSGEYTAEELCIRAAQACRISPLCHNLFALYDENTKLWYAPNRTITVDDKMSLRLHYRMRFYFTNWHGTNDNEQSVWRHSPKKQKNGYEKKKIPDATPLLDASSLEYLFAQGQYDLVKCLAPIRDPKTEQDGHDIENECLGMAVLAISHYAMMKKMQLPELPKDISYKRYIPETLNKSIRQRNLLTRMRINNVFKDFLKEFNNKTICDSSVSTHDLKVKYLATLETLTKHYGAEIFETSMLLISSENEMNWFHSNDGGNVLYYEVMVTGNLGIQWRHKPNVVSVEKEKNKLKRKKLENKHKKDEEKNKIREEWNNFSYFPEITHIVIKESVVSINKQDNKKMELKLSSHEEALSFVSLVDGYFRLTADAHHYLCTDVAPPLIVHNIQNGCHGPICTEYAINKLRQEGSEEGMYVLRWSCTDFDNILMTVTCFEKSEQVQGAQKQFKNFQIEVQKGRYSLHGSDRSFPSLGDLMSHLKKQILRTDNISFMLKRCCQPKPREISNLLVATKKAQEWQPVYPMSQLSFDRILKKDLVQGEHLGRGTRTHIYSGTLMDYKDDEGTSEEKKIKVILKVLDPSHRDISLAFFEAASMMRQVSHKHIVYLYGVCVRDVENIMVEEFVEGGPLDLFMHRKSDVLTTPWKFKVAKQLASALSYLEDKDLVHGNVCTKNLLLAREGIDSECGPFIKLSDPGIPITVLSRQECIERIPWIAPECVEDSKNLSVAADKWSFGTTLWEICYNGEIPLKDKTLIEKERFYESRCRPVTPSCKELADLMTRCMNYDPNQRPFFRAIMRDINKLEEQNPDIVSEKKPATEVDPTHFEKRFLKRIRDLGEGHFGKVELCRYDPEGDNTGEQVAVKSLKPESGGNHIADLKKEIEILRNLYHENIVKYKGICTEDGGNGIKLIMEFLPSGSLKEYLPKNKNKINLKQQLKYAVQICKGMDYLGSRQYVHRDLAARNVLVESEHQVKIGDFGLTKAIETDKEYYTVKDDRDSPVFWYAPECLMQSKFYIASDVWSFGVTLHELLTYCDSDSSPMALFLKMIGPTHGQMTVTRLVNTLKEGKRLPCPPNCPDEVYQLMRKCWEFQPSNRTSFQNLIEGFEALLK
Description: (§1) Recombinant human JAK1, JAK2, and JAK3 […] were purchased from Life technology. LANCE Ultra ULight™-JAK-1 (Tyr1023) peptide and LANCE Eu-W1024 Anti-phosphotyrosine (PT66) both were purchased from PerkinElmer. The plates were read using a multiplex enzyme reader Envision (PerkinElmer).
(§2) The test compounds were subjected to 3-fold concentration gradient dilution to afford 11 final concentrations ranging from 10 uM to 0.17 nM; two wells were formed for each concentration; and the content of DMSO in the detection reaction was 1%.
(§3) 2 nM of JAK1 protein kinase, 50 nM of LANCE Ultra ULight™-JAK-1 (Tyr1023) peptide, 38 uM of ATP, 50 mM of HEPES (pH 7.5), 10 mM of MgCl2, 1 mM of EGTA, 2 mM of DTT, and 0.01% of BRIJ-35 were included. The assay plate was a White Proxiplate 384-Plus plate (PerkinElmer). The reaction was performed at room temperature for 90 minutes; and the reaction system was 10 ul.
(§4) 10 ul of the detection reagent was added to a reaction plate, wherein the final concentration of LANCE Eu-W1024 Anti-phosphotyrosine (PT66) was 2 nM, and the final concentration of EDTA was 10 mM. The reagents were incubated for 60 minutes at room temperature; and the plate was read with Envision instrument.
The reading was converted to an inhibition rate by the following formula: […]. IC50 data were measured by 4-parameter curve fitting (Model 205 in XLFIT5, iDBS). Seen Table 9 for details.

[6] = molecular target: T2, Recombinant human JAK2 (Homo sapiens, UniProt O60674); test: In-vitro activity test of JAK2 kinase (LANCE Ultra); assay type: biochemical
T2 construct: purchased Life technology
T2 sequence (O60674 whole entry): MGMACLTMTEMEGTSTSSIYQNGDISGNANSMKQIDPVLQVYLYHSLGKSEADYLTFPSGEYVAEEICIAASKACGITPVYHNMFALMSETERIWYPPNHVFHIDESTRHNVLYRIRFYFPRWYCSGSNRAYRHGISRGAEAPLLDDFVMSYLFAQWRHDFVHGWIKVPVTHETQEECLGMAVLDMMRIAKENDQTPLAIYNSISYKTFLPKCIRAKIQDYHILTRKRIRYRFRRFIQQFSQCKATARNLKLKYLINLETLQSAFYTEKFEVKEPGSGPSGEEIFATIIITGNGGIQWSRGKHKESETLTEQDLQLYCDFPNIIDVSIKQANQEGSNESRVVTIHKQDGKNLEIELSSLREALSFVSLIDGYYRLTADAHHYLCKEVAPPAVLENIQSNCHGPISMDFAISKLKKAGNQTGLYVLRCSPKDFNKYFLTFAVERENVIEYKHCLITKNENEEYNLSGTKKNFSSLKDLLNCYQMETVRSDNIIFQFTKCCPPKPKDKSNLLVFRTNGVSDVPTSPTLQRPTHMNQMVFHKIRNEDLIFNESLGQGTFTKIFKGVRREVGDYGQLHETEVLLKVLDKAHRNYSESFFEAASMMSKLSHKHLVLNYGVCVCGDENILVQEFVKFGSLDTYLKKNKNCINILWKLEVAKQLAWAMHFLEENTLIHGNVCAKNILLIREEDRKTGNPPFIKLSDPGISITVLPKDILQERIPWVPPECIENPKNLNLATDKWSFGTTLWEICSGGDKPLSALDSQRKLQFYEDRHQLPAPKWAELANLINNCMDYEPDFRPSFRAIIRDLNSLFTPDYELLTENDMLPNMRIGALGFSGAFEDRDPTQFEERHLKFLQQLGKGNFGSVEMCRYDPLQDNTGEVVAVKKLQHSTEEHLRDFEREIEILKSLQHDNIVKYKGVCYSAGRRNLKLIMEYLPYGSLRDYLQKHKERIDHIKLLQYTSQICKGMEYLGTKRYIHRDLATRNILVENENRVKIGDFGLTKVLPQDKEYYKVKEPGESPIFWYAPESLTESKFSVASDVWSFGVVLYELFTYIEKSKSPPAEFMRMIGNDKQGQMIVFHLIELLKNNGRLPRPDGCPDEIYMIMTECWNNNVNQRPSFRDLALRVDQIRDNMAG
Description: as §1, §2
as §3, with “0.02 nM” for “2 nM”, “of JAK2” for “of JAK1”, “peptide, 12” for “peptide, 38”, “for 60” for “for 90”
as §4
The reading was converted to an inhibition rate by the following formula: (%)=(Min−Ratio)/(Max−Min)*100%. IC50 data were measured by 4-parameter curve fitting (Model 205 in XLFIT5, iDBS). […]

hygroscopicity (in words) [1]: low hygroscopicity | stability (in words) [1]: stable properties | water solubility (in words) [1]: excellent water solubility
SMILES: CN(c1ncnc2[nH]ccc12)[C@@H]1CCn2cc(C#N)nc2C1.O=C(O)C(F)(F)F [crystal form F of the compound 3]

XRPD ([2]; High humidity (room temperature/relative humidity 92.5%, open), day 5): Crystal form E | Appearance ([2]; High humidity (room temperature/relative humidity 92.5%, open), day 5 and day 10): White powder | XRPD ([2]; High humidity (room temperature/relative humidity 92.5%, open), day 10): Crystal form E | XRPD ([2]; High temperature (60° C., open), day 5): Crystal form E | Appearance ([2]; High temperature (60° C., open), day 5 and day 10): White powder | XRPD ([2]; High temperature (60° C., open), day 10): Crystal form E | XRPD ([2]; Strong light radiation (5000 lx, close), day 5): Crystal form E | Appearance ([2]; Strong light radiation (5000 lx, close), day 5 and day 10): White powder | XRPD ([2]; Strong light radiation (5000 lx, close), day 10): Crystal form E | Appearance ([2]; day 0 (initial)): White powder | XRPD ([2]; day 0 (initial)): Crystal form E | hygroscopicity (in words) [1]: low hygroscopicity | stability (in words) [1]: stable properties | water solubility (in words) [1]: excellent water solubility
SMILES: CN(c1ncnc2[nH]ccc12)[C@@H]1CCn2cc(C#N)nc2C1.Cc1ccc(S(=O)(=O)O)cc1 [Crystal Form E of Compound 2]

Solubility conclusion ([3]; 1,4-dioxane): Slightly soluble/very | Solubility conclusion ([3]; 2-methyltetrahydrofuran): Slightly soluble/very | Solubility conclusion ([3]; Acetone): Slightly soluble/very | Solubility conclusion ([3]; Acetone-water (1:2)): Slightly soluble/very | Solubility conclusion ([3]; Acetonitrile): Slightly soluble/very | Solubility conclusion ([3]; Acetonitrile-water (1:1)): Slightly soluble/very | Solubility conclusion ([3]; Cyclohexane): Slightly soluble/very | Solubility conclusion ([3]; Ethanol): Slightly soluble/very | Solubility conclusion ([3]; Ethanol-water (1:1)): Slightly soluble/very | Solubility conclusion ([3]; Ethanol-water (3:1)): Slightly soluble/very | Solubility conclusion ([3]; Ethyl acetate): Slightly soluble/very | Solubility conclusion ([3]; Heptane): Slightly soluble/very | Solubility conclusion ([3]; Isopropanol): Slightly soluble/very | Solubility conclusion ([3]; Isopropyl acetate): Slightly soluble/very | Solubility conclusion ([3]; Isopropyl alcohol-water (1:1)): Slightly soluble/very | Solubility conclusion ([3]; Methanol): Slightly soluble/very | Solubility conclusion ([3]; Methanol-water (1:1)): Slightly soluble/very | Solubility conclusion ([3]; Methanol-water (3:1)): Slightly soluble/very | Solubility conclusion ([3]; Methyl ethyl ketone): Slightly soluble/very | Solubility conclusion ([3]; Methyl isobutyl ketone): Slightly soluble/very | Solubility conclusion ([3]; Methyl tert-butyl ether): Slightly soluble/very | Solubility conclusion ([3]; N-butanol): Slightly soluble/very | Solubility conclusion ([3]; Tetrahydrofuran): Slightly soluble/very | Solubility conclusion ([3]; Toluene): Slightly soluble/very | Solubility conclusion ([3]; Water): Slightly soluble/very | solubility ([3]; aqueous with cosolvent or surfactant or cyclodextrin, Acetone-water (1:2)): < 2000 µg/mL | solubility ([3]; aqueous with cosolvent or surfactant or cyclodextrin, Acetonitrile-water (1:1)): < 2000 µg/mL | solubility ([3]; aqueous with cosolvent or surfactant or cyclodextrin, Ethanol-water (1:1)): < 2000 µg/mL | solubility ([3]; aqueous with cosolvent or surfactant or cyclodextrin, Ethanol-water (3:1)): < 2000 µg/mL | solubility ([3]; aqueous with cosolvent or surfactant or cyclodextrin, Isopropyl alcohol-water (1:1)): < 2000 µg/mL | solubility ([3]; aqueous with cosolvent or surfactant or cyclodextrin, Methanol-water (1:1)): < 2000 µg/mL | solubility ([3]; aqueous with cosolvent or surfactant or cyclodextrin, Methanol-water (3:1)): < 2000 µg/mL | solubility ([3]; organic solvent or mixture, 1,4-dioxane): < 2000 µg/mL | solubility ([3]; organic solvent or mixture, 2-methyltetrahydrofuran): < 2000 µg/mL | solubility ([3]; organic solvent or mixture, Acetone): < 2000 µg/mL | solubility ([3]; organic solvent or mixture, Acetonitrile): < 2000 µg/mL | solubility ([3]; organic solvent or mixture, Cyclohexane): < 2000 µg/mL | solubility ([3]; organic solvent or mixture, Ethanol): < 2000 µg/mL | solubility ([3]; organic solvent or mixture, Ethyl acetate): < 2000 µg/mL | solubility ([3]; organic solvent or mixture, Heptane): < 2000 µg/mL | solubility ([3]; organic solvent or mixture, Isopropanol): < 2000 µg/mL | solubility ([3]; organic solvent or mixture, Isopropyl acetate): < 2000 µg/mL | solubility ([3]; organic solvent or mixture, Methanol): < 2000 µg/mL | solubility ([3]; organic solvent or mixture, Methyl ethyl ketone): < 2000 µg/mL | solubility ([3]; organic solvent or mixture, Methyl isobutyl ketone): < 2000 µg/mL | solubility ([3]; organic solvent or mixture, Methyl tert-butyl ether): < 2000 µg/mL | solubility ([3]; organic solvent or mixture, N-butanol): < 2000 µg/mL | solubility ([3]; organic solvent or mixture, Tetrahydrofuran): < 2000 µg/mL | solubility ([3]; organic solvent or mixture, Toluene): < 2000 µg/mL | solubility ([3]; Water): < 2000 µg/mL | Results (crystal form of the solid by XRPD) ([4]; Acetone-water (1:2)): Crystal form A | Appearance (2 days) ([4]; Acetone-water (1:2)): Suspension | Results (crystal form of the solid by XRPD) ([4]; Acetone): Crystal form A | Appearance (2 days) ([4]; Acetone): Suspension | Results (crystal form of the solid by XRPD) ([4]; Ethanol-water (3:1)): Crystal form A | Appearance (2 days) ([4]; Ethanol-water (3:1)): Suspension | Results (crystal form of the solid by XRPD) ([4]; Ethanol): Crystal form A | Appearance (2 days) ([4]; Ethanol): Suspension | Results (crystal form of the solid by XRPD) ([4]; Ethyl acetate): Crystal form A | Appearance (2 days) ([4]; Ethyl acetate): Suspension | Results (crystal form of the solid by XRPD) ([4]; Isopropanol): Crystal form A | Appearance (2 days) ([4]; Isopropanol): Suspension | Results (crystal form of the solid by XRPD) ([4]; Isopropyl alcohol-water (1:1)): Crystal form A | Appearance (2 days) ([4]; Isopropyl alcohol-water (1:1)): Suspension | Results (crystal form of the solid by XRPD) ([4]; Methanol-water (3:1)): Crystal form A | Appearance (2 days) ([4]; Methanol-water (3:1)): Suspension | Results (crystal form of the solid by XRPD) ([4]; Methanol): Crystal form A | Appearance (2 days) ([4]; Methanol): Suspension | Results (crystal form of the solid by XRPD) ([4]; Tetrahydrofuran): Crystal form A | Appearance (2 days) ([4]; Tetrahydrofuran): Suspension | hygroscopicity (in words) [1]: low hygroscopicity | stability (in words) [1]: stable properties | water solubility (in words) [1]: excellent water solubility
SMILES: CN(c1ncnc2[nH]ccc12)[C@@H]1CCn2cc(C#N)nc2C1 [Crystal Form A of Compound 1]

inhibitory activity against JAK1 (in words) [5]: strong inhibitory activity | selective inhibition (JAK1 versus JAK2, in words) [5]: better selective inhibition for JAK | pIC50 ([5]; 38 uM ATP, 90 minutes, room temperature): ≥ 8.00 | inhibitory activity against JAK2 (in words) [6]: relatively weak inhibitory activity | pIC50 ([6]; 12 uM ATP, 60 minutes, room temperature): 7.00 to 8.00
SMILES: CN(c1ncnc2[nH]ccc12)[C@@H]1CCn2cc(C#N)nc2C1 (single isomer, unassigned) [Compound 1, 7-[methyl-[7-hydropyrrolo[2,3-d]pyrimidin-4-yl]amino]-5,6,7,8-tetrahydroimidazo[1,2-a]pyridin-2-nitrile]

From patent US10774094B2, “Crystal forms and salt forms of 7h-pyrrolo[2,3-d]pyrimidine compounds and preparation method thereof” (Wuxi Fortune Pharmaceutical Co., Ltd, priority 2016, dated 2020)
